# Data: patent US20100087788A1, “Anti-infective alcohol catheter solution with chlorhexidine treated catheter” (priority 2006, published 2010)
# Legend:
# [1] = test system: most microorganisms; conditions: Sissons et al. 1996; cited from earlier work
# [2] = test system: S. epidermidis ATCC 35983; conditions: ethanol
# Experimental: (§1) Determinations of Minimum Inhibitory Concentration (MIC) and Minimum Bacteriocidal Concentration (MBC) were performed using standard microbiological techniques. Chlorhexidine diacetate was tested at the following μg/mL concentrations: 256, 128, 64, 32, 16, 8, 4, 2, 1, 0.5, 0.25, and 0.125. Ethanol was tested at the following percent (%) concentrations: 50, 40, 30, 25, 20, 15, 12, 10, 7, and 5. Dilutions were prepared in Cationic Adjusted Mueller Hinton Broth (CAMHB). All tests were performed in microtiter plates with a total test volume of 100 μL, including diluted antimicrobial agent and inoculum. Concentrations of antimicrobial agents were prepared at 2× concentration, and 50 μL was added to each well of a microtiter plate, to which 50 μL of inoculum of the test organism was added to give the target test concentration.
# (§2) Inoculum was prepared by transfer of isolated colonies from agar plates to 10 mL of trypticase soy broth (TSB), and incubation at 37° C. for 4 hrs. Cells were subsequently centrifuged, and resuspended twice in phosphate buffered saline. The population of this bacterial suspension was determined by reading optical density at 670 nm. Final concentrations of inoculum were adjusted to a range of approximately 5×10^4 cfu/mL, using CAMHB as a diluent. Initial concentrations were verified using the Miles and Misra drop count method. To each test well of a microtiter plate, 50 μl of inoculum was added along with 50 μl of the 2× concentration of the antimicrobial agent being tested. Incubation was at 37° C. for 16 to 20 hours.
# (§3) To determine MBC values, 50 μl was removed from each well showing inhibition of growth (MIC and greater). Solutions from these inhibitory concentrations of antimicrobial agent were diluted in CAMHB to concentrations where they would no longer inhibit the growth of the test organism. Recovery counts were obtained by plating aliquots of the diluted material onto TSA plate containing 5% sheep's blood, and incubating 24 hours at 37° C.
# [3] = test system: P. aeruginosa ATCC 27853; conditions: ethanol
# Experimental: as §1, §2, §3
# [4] = test system: E. faecalis ATCC 51299; conditions: ethanol
# Experimental: as §1, §2, §3
# [5] = test system: S. aureus ATCC 29213; conditions: ethanol
# Experimental: as §1, §2, §3
# [6] = test system: K. pneumoniae ATCC 10031; conditions: ethanol
# Experimental: as §1, §2, §3
# [7] = test system: C. albicans ATCC 10231; conditions: ethanol
# Experimental: as §1, §2, §3
# [8] = test system: E. cloacae ATCC 13047; conditions: ethanol
# Experimental: as §1, §2, §3
# [9] = test system: most commonly encountered infectious pathogens; conditions: conclusion from Table 1
# Experimental: as §1, §2, §3
# [10] = test system: E. coli ATCC 25922; conditions: ethanol
# Experimental: as §1, §2, §3
# [11] = Solubility of chlorhexidine salts in ethanol (100%) and water; format: physicochemical; conditions: for Ethanol Solubility: ethanol (100%)
# [12] = test system: E. faecalis; assay: MBC of chlorhexidine diacetate alone and at 80% of the ethanol MIC; format: cell-based
# Experimental: as §1
# as §2, with “To each test well of a microtiter plate, 50 μl of inoculum was added along with 50 μl of the 2× concentration of the antimicrobial agent being tested. Incubation was at 37° C. for 16 to 20 hours.” left out
# [13] = Release kinetics of chlorhexidine from loaded catheter segments; format: physicochemical; conditions: catheter segments 200 micrograms/cm
# Experimental: 5Fr Catheter segments were bulk impregnated with chlorhexidine base (CHX) by soaking in an ethyl acetate solution of CHX and then evaporating the solvent. The chlorhexidine mass per unit length was determined by dissolving the catheter […] extracting the chlorhexidine. The measure mass of chlorhexidine was approximately 200 micrograms per cm. 5Fr catheter segments were similarly impregnated with chlorhexidine diacetate to a level of 200 micrograms/cm by soaking in an ethyl acetate-methanol solution followed by evaporation. These segments were used in Zone of inhibition testing and release kinetics testing.
# Release kinetics measurements were performed of chlorhexidine base (CHX) and chlorhexidine diacetate (CHA) loaded catheter segments (200 micrograms/cm) in water and in 25% ethanol lock. One cm long catheter segments were placed in 10 ml of 25% ethanol lock solution. At each sampling point the eluting solution was removed and replaced with fresh solution. The amount of chlorhexidine released was measured by UV absorbance readings at 263 nm on the eluting lock solution relative to a reference curve of chlorhexidine standards prepared to known concentrations in 25% ethanol lock. Cumulative % release was calculated from the measured amount released at each time point and the quantity of chlorhexidine loaded into the catheter segments.
# [14] = test system: E. coli; assay: MBC of chlorhexidine diacetate alone and at 80% of the ethanol MIC; format: cell-based
# Source text: (§4) The synergy of ethanol and chlorhexidine is illustrated in Table 2 by measurement of the minimum bacteriocidal concentration (MBC) of chlorhexidine at ethanol concentrations that are subinhibitory (80% of the ethanol minimum inhibitory concentration).
# [15] = test system: S. aureus; assay: as above; format: cell-based
# Source text: as §4
# [16] = test system: E. faecalis, S. aureus, E. coli; assay: Change of chlorhexidine MBC at subinhibitory ethanol (summary of Table 2); format: cell-based; conditions: ethanol at 80% of the ethanol MIC
# Experimental: as §1
# as §2, with “To each test well of a microtiter plate, 50 μl of inoculum was added along with 50 μl of the 2× concentration of the antimicrobial agent being tested. Incubation was at 37° C. for 16 to 20 hours.” left out
molecule,measurement,setting,value
CCO [ethanol],concentration that inhibits the growth of most microorganisms,[1],10%
same,concentrations generally considered bactericidal,[1],≥ 40%
same,MBC,[2],10-12%
same,MIC,"[2]; CAMHB, 37° C., 16 to 20 hours",12%
same,MBC,[3],12%
same,MIC,"[3]; CAMHB, 37° C., 16 to 20 hours",7%
same,MBC,[4],10%
same,MIC,"[4]; CAMHB, 37° C., 16 to 20 hours",7%
same,MBC,[5],25%
same,MIC,"[5]; CAMHB, 37° C., 16 to 20 hours",12%
same,MBC,[6],25%
same,MIC,"[6]; CAMHB, 37° C., 16 to 20 hours",10%
same,MBC,[7],10%
same,MIC,"[7]; CAMHB, 37° C., 16 to 20 hours",7%
same,MBC,[8],10%
same,MIC,"[8]; CAMHB, 37° C., 16 to 20 hours",7%
same,ethanol concentration at which the solution will not inhibit microbial growth,[9],below 7%
same,ethanol lock concentration cidal towards most commonly encountered infectious pathogens,[9],above 25%
same,MBC,[10],15%
same,MIC,"[10]; CAMHB, 37° C., 16 to 20 hours",10%
CCCCC(=O)O.CCCCC(=O)O.N=C(NCCCCCCNC(=N)NC(=N)Nc1ccc(Cl)cc1)NC(=N)Nc1ccc(Cl)cc1 [Valerate],Ethanol Solubility,[11],20 mg/mL
same,Water Solubility,[11],1.2 mg/mL
"CC(=O)O.CC(=O)O.NC(=N\CCCCCC/N=C(N)/N=C(\N)Nc1ccc(Cl)cc1)/N=C(\N)Nc1ccc(Cl)cc1 [CHA, chlorhexidine diacetate]",MBC for CHA @ 80% MIC ETOH,[12]; ethanol 5.6% (80% of MIC),4 µg/mL
same,MBC for CHA,[12]; no ethanol,8 µg/mL
same,"release of chlorhexidine from catheter into 25% ethanol lock solution, compared with chlorhexidine base (FIG. 2)",[13],releases faster
same,MBC for CHA @ 80% MIC ETOH,[14]; ethanol 8% (80% of MIC),2 µg/mL
same,MBC for CHA,[14]; no ethanol,4 µg/mL
same,MBC for CHA @ 80% MIC ETOH,[15]; ethanol 9.6% (80% of MIC),1 µg/mL
same,MBC for CHA,[15]; no ethanol,1 to 2 µg/mL
same,drop of chlorhexidine MBC in the presence of subinhibitory ethanol concentrations,[16],approximately 50%
Laurate,Ethanol Solubility,[11],200 mg/mL
same,Water Solubility,[11],0.01 mg/mL
